Data: patent US12486267B2, “Imidazo[1,2-A]pyridine and [1,2,4]triazolo[1,5-A]pyridine derivatives as TLR9 inhibitors for the treatment of fibrosis” (BRISTOL-MYERS SQUIBB COMPANY, priority 2020, dated 2025)

How the values were obtained:
Type in all cases: cell-based
human TLR7 = target: T1, human TLR7 (Homo sapiens, UniProt Q9NYK1); test: TLR7 inhibition reporter assay (HEK-Blue cells, SEAP reporter); conditions: HEK-Blue cells overexpressing human TLR7; stimulated with gardiquimod 7.5 μM; 22 hour incubation; SEAP readout
T1 sequence (Q9NYK1 27-1049): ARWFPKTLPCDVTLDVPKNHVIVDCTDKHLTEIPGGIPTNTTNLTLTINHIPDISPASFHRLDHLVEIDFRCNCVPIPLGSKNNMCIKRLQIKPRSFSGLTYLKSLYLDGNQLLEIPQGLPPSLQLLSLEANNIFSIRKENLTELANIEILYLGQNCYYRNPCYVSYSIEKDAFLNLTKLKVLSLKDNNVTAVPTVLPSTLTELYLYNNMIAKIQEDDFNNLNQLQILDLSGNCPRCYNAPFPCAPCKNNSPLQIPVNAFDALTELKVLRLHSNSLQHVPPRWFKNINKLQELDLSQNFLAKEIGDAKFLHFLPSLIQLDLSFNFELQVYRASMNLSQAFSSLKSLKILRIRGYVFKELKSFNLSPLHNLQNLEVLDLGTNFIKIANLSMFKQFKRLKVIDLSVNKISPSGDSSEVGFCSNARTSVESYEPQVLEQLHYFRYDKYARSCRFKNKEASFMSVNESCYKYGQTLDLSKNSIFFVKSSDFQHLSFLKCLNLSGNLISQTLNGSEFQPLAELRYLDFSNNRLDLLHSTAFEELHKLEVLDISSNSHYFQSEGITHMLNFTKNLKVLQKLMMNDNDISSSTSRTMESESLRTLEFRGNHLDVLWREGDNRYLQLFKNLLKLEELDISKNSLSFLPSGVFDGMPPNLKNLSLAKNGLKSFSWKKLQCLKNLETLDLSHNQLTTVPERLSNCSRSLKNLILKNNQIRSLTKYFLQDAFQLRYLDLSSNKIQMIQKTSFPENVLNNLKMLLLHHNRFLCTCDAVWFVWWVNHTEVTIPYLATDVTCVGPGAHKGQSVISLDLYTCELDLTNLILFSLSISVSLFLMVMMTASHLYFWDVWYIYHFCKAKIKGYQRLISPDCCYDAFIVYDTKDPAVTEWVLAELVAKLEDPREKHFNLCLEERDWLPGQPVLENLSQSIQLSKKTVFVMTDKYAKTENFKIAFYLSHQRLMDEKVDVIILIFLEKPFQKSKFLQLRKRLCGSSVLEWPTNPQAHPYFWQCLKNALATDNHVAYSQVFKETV
Method in brief: (§1)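 HEK-Blue cells with NF-κB/AP-1-driven SEAP pre-treated 30 min with compound (0.05 nM–50 μM), then stimulated with gardiquimod 7.5 μM (TLR7), R848 15.9 μM (TLR8) or ODN2006 5 nM (TLR9). SEAP detected after 22 h at 37 °C; percent inhibition relative to agonist-plus-DMSO and known-inhibitor wells.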

human TLR9 = target: T2, human TLR9 (Homo sapiens, UniProt Q9NR96); test: TLR9 inhibition reporter assay (HEK-Blue cells, SEAP reporter); conditions: HEK-Blue cells overexpressing human TLR9; stimulated with ODN2006 5 nM; 22 hour incubation; SEAP readout
T2 sequence (Q9NR96 26-1032): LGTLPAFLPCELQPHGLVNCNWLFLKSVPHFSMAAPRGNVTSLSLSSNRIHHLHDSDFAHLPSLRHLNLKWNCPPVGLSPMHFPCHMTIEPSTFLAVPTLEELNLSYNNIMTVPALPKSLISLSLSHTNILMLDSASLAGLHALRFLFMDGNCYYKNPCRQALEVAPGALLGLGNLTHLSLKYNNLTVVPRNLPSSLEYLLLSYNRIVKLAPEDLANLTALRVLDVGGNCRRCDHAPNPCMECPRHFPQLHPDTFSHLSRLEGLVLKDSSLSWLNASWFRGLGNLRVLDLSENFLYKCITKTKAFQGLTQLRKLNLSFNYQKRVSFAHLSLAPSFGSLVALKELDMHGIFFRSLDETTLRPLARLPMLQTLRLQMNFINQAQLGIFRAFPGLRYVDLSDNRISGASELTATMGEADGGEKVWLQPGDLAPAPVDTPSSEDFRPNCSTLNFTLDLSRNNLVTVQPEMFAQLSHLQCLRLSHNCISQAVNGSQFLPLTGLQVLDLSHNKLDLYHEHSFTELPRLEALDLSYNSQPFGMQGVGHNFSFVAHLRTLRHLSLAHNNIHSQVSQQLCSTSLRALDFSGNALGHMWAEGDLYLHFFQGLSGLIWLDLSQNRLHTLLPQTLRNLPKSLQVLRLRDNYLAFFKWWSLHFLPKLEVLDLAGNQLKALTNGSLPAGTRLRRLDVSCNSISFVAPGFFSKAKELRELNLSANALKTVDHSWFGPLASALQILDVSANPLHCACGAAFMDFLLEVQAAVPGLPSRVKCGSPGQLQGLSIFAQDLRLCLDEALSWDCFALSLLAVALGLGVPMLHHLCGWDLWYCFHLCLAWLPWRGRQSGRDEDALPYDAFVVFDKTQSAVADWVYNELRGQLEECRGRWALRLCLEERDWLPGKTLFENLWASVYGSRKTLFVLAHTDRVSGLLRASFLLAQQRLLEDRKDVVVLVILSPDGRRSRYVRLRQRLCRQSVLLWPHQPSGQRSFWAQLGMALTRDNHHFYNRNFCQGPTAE
Method in brief: as §1

human TLR8 = target: T3, human TLR8 (Homo sapiens, UniProt Q9NR97); test: TLR8 inhibition reporter assay (HEK-Blue cells, SEAP reporter); conditions: HEK-Blue cells overexpressing human TLR8; stimulated with R848 15.9 μM; 22 hour incubation; SEAP readout
T3 sequence (Q9NR97 27-1041): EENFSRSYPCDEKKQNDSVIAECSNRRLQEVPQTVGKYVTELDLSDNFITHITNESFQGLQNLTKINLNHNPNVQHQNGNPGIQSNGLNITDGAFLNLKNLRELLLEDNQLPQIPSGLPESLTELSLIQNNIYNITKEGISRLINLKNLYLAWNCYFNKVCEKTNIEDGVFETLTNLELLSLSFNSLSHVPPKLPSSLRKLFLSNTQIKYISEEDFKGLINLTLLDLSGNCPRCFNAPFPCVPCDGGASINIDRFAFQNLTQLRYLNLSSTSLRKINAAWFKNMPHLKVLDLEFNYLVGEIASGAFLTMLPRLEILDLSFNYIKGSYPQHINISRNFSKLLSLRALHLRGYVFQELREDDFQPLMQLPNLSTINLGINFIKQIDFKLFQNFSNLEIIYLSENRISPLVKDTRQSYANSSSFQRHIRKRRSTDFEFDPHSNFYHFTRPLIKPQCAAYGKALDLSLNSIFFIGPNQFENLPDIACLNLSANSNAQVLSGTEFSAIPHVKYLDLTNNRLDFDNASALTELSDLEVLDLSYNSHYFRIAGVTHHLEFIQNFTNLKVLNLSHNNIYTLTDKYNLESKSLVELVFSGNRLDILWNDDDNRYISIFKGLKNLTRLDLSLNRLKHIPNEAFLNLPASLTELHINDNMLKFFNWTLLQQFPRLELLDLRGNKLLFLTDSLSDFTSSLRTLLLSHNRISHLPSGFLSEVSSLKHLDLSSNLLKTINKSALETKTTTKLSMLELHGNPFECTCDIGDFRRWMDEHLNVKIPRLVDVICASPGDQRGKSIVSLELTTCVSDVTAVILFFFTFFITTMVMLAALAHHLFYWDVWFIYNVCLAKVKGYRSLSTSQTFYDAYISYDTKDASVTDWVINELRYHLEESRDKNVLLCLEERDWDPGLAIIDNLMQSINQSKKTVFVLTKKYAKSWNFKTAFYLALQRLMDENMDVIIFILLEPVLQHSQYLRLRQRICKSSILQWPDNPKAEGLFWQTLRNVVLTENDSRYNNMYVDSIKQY
Method in brief: as §1

IC50 (human TLR7) [nM] | IC50 (human TLR9) [nM] | IC50 (human TLR8) [nM] | SMILES
> 50000 | 52 | > 50000 | CC(C)CN1C2CCC1CC(N1CCC([C@H]3CCc4nc(-c5ccc(S(C)(=O)=O)cc5)cn4C3)CC1)C2 (single isomer, unassigned) [Example 80]
9200 | 21 | > 50000 | CC(C)CN1C2CCC1CC(N1CCC([C@@H]3CCc4nc(-c5ccc(S(C)(=O)=O)cc5)cn4C3)CC1)C2 (single isomer, unassigned) [Example 82]
4400 | 28 | > 25000 | Cc1cc(C2CCN(C3CC4CCC(C3)N4CC3CC3)CC2)cn2cc(-c3ccc(S(C)(=O)=O)cc3)nc12 (single isomer, unassigned) [Example 87, 6-(1-(8-(cyclopropylmethyl)-8-azabicyclo[3.2.1]octan-3-yl)piperidin-4-yl)-8-methyl-2-(4-(methylsulfonyl)phenyl) imidazo[1,2-a]pyridine]
2200 | 329 | > 50000 | Cc1cc(C2CCN(C3CC4CCC(C3)N4CC3CCC3)CC2)cn2cc(-c3ccc(S(C)(=O)=O)cc3)nc12 (single isomer, unassigned) [Example 89, 6-(1-(8-(cyclobutylmethyl)-8-azabicyclo[3.2.1]octan-3-yl)piperidin-4-yl)-8-methyl-2-(4-(methylsulfonyl)phenyl)imidazo[1,2-a]pyridine]
600 | 31 | > 50000 | CC(C)CN1C2CCC1CC(N1CCC(c3cc(F)c4nc(-c5ccc(S(C)(=O)=O)cc5)cn4c3)CC1)C2 (single isomer, unassigned) [Example 113, 8-fluoro-6-(1-(8-isobutyl-8-azabicyclo[3.2.1]octan-3-yl)piperidin-4-yl)-2-(4-(methylsulfonyl)phenyl)imidazo[1,2-a]pyridine]
2000 | 66 | 17000 | CC(C)CN1C2CCC1CC(N1CCC(c3cc(F)c4nc(-c5ccc(S(C)(=O)=O)cc5)cn4c3)CC1)C2 (single isomer, unassigned) [Example 114, 8-fluoro-6-(1-(8-isobutyl-8-azabicyclo[3.2.1]octan-3-yl)piperidin-4-yl)-2-(4-(methylsulfonyl)phenyl)imidazo[1,2-a]pyridine]

Continued, compound first:

SMILES | IC50 (human TLR7) [nM] | IC50 (human TLR9) [nM] | IC50 (human TLR8) [nM]
CC(C)N1C2CCC1CC(N1CCC(c3cc(F)c4nc(-c5ccc(S(C)(=O)=O)cc5)cn4c3)CC1)C2 (single isomer, unassigned) [Example 68, 8-fluoro-6-(1-(8-isopropyl-8-azabicyclo[3.2.1]octan-3-yl)piperidin-4-yl)-2-(4-(methylsulfonyl)phenyl)imidazo[1,2-a]pyridine] | 8200 | 110 | > 50000
CC(C)N1C2CCC1CC(N1CCC(c3cc(F)c4nc(-c5ccc(S(C)(=O)=O)cc5)cn4c3)CC1)C2 (single isomer, unassigned) [Example 69, 8-fluoro-6-(1-(8-isopropyl-8-azabicyclo[3.2.1]octan-3-yl)piperidin-4-yl)-2-(4-(methylsulfonyl)phenyl)imidazo[1,2-a]pyridine] | 3400 | 26 | > 50000
CC(C)N1CCCC(N2CCC(c3cc(F)c4nc(-c5ccc(S(C)(=O)=O)cc5)cn4c3)CC2)CC1 (single isomer, unassigned) [Example 71, 8-fluoro-6-(1-(1-isopropylazepan-4-yl)piperidin-4-yl)-2-(4-(methylsulfonyl)phenyl)imidazo[1,2-a]pyridine] | 3000 | 39 | > 50000
CC(C)N1CCCC(N2CCC(c3cc(F)c4nc(-c5ccc(S(C)(=O)=O)cc5)cn4c3)CC2)CC1 (single isomer, unassigned) [Example 72, 8-fluoro-6-(1-(1-isopropylazepan-4-yl)piperidin-4-yl)-2-(4-(methylsulfonyl)phenyl)imidazo[1,2-a]pyridine] | 3000 | 2.6 | > 50000
COc1ccc(-c2cn3c(n2)CC[C@H](C2CCN(C4CC5CCC(C4)N5CC(C)C)CC2)C3)cc1OC (single isomer, unassigned) [Example 75] | 2900 | 34 | > 25000
COc1ccc(-c2cn3c(n2)CC[C@H](C2CCN(C4CC5CCC(C4)N5CC(C)C)CC2)C3)cc1OC (single isomer, unassigned) [Example 76] | 1600 | 52 | > 25000
COc1ccc(-c2cn3c(n2)CC[C@@H](C2CCN(C4CC5CCC(C4)N5CC(C)C)CC2)C3)cc1OC (single isomer, unassigned) [Example 77] | 3600 | 64 | > 25000
COc1ccc(-c2cn3c(n2)CC[C@@H](C2CCN(C4CC5CCC(C4)N5CC(C)C)CC2)C3)cc1OC (single isomer, unassigned) [Example 78] | 8600 | 108 | > 25000
CC(C)CN1C2CCC1CC(N1CCC([C@H]3CCc4nc(-c5ccc(S(C)(=O)=O)cc5)cn4C3)CC1)C2 (single isomer, unassigned) [Example 79] | 16700 | 171 | 16700
